Laboratory results from publication PMC3914206.

Tests used:
Format in all cases: binding
panel of 442 kinases [1] = target: T1, panel of 442 kinases (Homo sapiens, UniProt P37173); conditions: kinase TGFBR2; compound concentration 10 µM
T1 construct: purchased KINOMEscan
Description: (§1) We assessed the selectivity of members of this scaffold using the KINOMEscan methodology across a near comprehensive panel of 442 kinases [[18,27]].

panel of 442 kinases [2] = target: T2, panel of 442 kinases (Homo sapiens, UniProt P42685); conditions: Compound Concentration 10 µM
T2 construct: purchased KINOMEscan
T2 sequence (P42685 whole entry): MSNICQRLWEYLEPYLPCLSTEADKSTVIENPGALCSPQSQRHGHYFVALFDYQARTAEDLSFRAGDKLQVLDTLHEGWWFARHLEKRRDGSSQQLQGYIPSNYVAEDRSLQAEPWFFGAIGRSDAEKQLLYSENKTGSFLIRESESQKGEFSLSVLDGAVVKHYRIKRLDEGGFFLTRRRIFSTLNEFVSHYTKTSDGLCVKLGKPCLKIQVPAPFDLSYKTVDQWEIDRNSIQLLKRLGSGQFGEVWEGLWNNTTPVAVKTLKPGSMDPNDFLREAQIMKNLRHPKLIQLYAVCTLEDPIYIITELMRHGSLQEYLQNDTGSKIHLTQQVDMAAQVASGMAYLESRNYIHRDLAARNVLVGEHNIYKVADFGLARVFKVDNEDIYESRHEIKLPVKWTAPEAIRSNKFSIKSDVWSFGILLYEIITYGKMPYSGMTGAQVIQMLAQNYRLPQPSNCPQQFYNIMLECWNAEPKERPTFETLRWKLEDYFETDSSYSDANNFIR
Description: as §1

panel of 442 kinases [3] = target: T3, panel of 442 kinases (Homo sapiens, UniProt P53671); conditions: Compound Concentration 10 µM
T3 construct: purchased KINOMEscan
T3 sequence (P53671 whole entry): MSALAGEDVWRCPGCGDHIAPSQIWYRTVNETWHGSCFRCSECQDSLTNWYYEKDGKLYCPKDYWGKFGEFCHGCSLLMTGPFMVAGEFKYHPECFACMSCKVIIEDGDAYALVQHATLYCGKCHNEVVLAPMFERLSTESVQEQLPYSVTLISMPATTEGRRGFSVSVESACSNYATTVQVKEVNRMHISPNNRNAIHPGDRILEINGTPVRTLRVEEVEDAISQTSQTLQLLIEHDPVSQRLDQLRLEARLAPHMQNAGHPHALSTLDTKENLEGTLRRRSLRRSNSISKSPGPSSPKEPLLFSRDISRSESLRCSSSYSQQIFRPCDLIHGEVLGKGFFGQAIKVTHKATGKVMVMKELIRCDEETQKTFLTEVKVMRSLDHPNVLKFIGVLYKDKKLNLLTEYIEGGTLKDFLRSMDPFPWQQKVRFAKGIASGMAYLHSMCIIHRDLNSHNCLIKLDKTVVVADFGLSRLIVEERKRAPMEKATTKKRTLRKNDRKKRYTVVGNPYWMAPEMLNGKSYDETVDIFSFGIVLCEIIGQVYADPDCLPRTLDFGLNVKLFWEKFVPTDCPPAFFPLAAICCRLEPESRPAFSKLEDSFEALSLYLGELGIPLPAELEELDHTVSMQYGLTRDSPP
Description: as §1

T1 sequence (P37173 23-567): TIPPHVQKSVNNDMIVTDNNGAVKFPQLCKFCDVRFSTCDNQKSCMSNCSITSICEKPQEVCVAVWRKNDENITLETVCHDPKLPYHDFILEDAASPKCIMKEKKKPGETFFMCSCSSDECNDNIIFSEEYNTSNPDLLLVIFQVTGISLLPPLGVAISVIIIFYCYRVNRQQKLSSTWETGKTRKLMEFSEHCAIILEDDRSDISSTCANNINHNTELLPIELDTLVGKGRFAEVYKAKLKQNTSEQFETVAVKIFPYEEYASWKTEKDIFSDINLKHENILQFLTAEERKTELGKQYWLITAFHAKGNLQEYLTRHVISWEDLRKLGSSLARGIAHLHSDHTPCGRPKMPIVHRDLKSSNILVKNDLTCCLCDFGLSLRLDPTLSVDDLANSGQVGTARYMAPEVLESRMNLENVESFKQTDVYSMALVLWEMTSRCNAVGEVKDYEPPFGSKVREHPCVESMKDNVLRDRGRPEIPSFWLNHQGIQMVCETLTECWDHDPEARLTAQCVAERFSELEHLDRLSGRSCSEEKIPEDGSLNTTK

| SMILES | % Ctrl, TGFBR2 (panel of 442 kinases [1]) | KINOMEscan: FRK (panel of 442 kinases [2]) | KINOMEscan: LIMK2 (panel of 442 kinases [3]) |
| --- | --- | --- | --- |
| CCOc1cc(C(=O)N2CCC(N3CCN(C)CC3)CC2)ccc1Nc1ncc2c(n1)N(C1CCCC1)c1ccccc1C(=O)N2C [Compound 26] | 100 % Ctrl | 87 | 100 |
| COc1cc(C(=O)N2CCC(N3CCN(C)CC3)CC2)ccc1Nc1ncc2c(n1)N1CCc3cccc(c31)C(=O)N2C [Compound 24] | 100 % Ctrl | 56 |  |
| COc1cc(C(=O)N2CCC(N3CCN(C)CC3)CC2)ccc1Nc1ncc2c(n1)N(C)c1ccccc1C(=O)N2C [15 (LRRK2-IN-1)] | 100 % Ctrl | 34 | 100 |
| COc1cc(C(=O)N2CCC(N3CCN(C)CC3)CC2)ccc1Nc1ncc2c(n1)N(C1CCCC1)c1ccccc1C(=O)N2C [Compound 25, 11-cyclopentyl-2-((2-methoxy-4-(4-(4-methylpiperazin-1-yl)piperidine-1-carbonyl)phenyl)amino)-5-methyl-5H-benzo[e]pyrimido[5,4-b][1,4]diazepin-6(11H)-one] | 100 % Ctrl | 24 | 100 |
